Results reported in PubChem BioAssay (NCI).
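Method: 48-hour compound exposure of cells in 96-well plates, five concentrations, linear interpolation of endpoints. Here, GI50 denotes the concentration required for 50% inhibition of growth. TGI: total growth inhibition.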

Experiments:
Experiment in all cases: growth of human tumour cells (NCI), 48 h
CAKI-1 renal = test system: CAKI-1 renal
K-562 leukemia = test system: K-562 leukemia
HL-60(TB) leukemia = test system: HL-60(TB) leukemia
T-47D breast = test system: T-47D breast
UACC-62 melanoma = test system: UACC-62 melanoma
RXF 393 renal = test system: RXF 393 renal
CCRF-CEM leukemia = test system: CCRF-CEM leukemia
LOX IMVI melanoma = test system: LOX IMVI melanoma
OVCAR-4 ovarian = test system: OVCAR-4 ovarian
MALME-3M melanoma = test system: MALME-3M melanoma

Row | SMILES | TGI (CAKI-1 renal) [µM] | TGI (K-562 leukemia) [µM] | TGI (HL-60(TB) leukemia) [µM] | TGI (T-47D breast) [µM] | TGI (UACC-62 melanoma) [µM] | TGI (RXF 393 renal) [µM] | TGI (CCRF-CEM leukemia) [µM] | TGI (LOX IMVI melanoma) [µM] | TGI (OVCAR-4 ovarian) [µM] | TGI (MALME-3M melanoma) [µM] | GI50 (CAKI-1 renal) [µM] | GI50 (K-562 leukemia) [µM] | GI50 (MALME-3M melanoma) [µM] | GI50 (T-47D breast) [µM] | GI50 (UACC-62 melanoma) [µM] | GI50 (RXF 393 renal) [µM] | GI50 (CCRF-CEM leukemia) [µM] | GI50 (LOX IMVI melanoma) [µM] | GI50 (OVCAR-4 ovarian) [µM] | GI50 (HL-60(TB) leukemia) [µM]
1 | O=C(CC1C=CCS1(=O)=O)NCc1ccccc1 (centres undefined) | > 100 | > 100 | > 100 | > 100 | > 100 | > 100 | > 100 | > 100 | > 100 | – | – | – | – | – | – | – | – | – | – | –
2 | CC1(O)CCC2(C#N)CCC1C2O (centres undefined) | > 100 | > 100 | > 100 | – | > 100 | > 100 | > 100 | 41.9 | > 100 | > 100 | – | – | – | – | – | – | – | – | – | –
3 | COC1=C(Br)C(=O)C2=C(C1=O)C1C3=C(C(=O)C=CC3=O)C2c2ccccc21 (centres undefined) | 38.4 | > 100 | – | 21.7 | 27.8 | 37.5 | > 100 | 26 | 63.7 | 56.8 | 15.6 | 4.66 | 27.8 | 3.16 | 11.2 | 18.3 | 3.16 | 4.91 | 13.7 | –
4 | N#CC1C2CCC3(CC2CCN1C(=O)c1ccccc1)OCCO3 (centres undefined) | – | > 100 | > 100 | – | > 100 | > 100 | > 100 | > 100 | > 100 | > 100 | – | – | – | – | – | – | – | – | – | –
5 | Cc1cc2cn3c4cccnc4[nH]c(=O)c3c2cc1C | 2.92 | – | 4.16 | 4 | 2.78 | 2.88 | – | 2.99 | 3.19 | – | 1.42 | – | – | 1.84 | 1.38 | 1.46 | – | 1.47 | 1.6 | 2.08
6 | COc1ccc(N(/C=C/C(=O)C(F)(F)F)CC(=O)c2ccc(Cl)c(Cl)c2)cc1 | 34.7 | > 100 | – | 48.3 | 22.8 | > 100 | 18.3 | 27.4 | > 100 | > 100 | 15.6 | 4.07 | 39.7 | 18.9 | 8.75 | 36.3 | 3.39 | 11.8 | 32 | –
7 | Cc1c2c(cc3c(=O)ccn(CCN(C)C)c13)c(=O)ccn2CCN(C)C | 67.8 | 44.9 | 41.6 | – | 31.6 | 28.9 | 27.9 | 25.3 | 18.6 | 69.1 | – | – | – | – | – | – | – | – | – | –
8 | Clc1ccc(Nc2ccnc(NCCCNc3ccnc4cc(Cl)ccc34)n2)cc1 | 2.83 | – | – | – | – | – | – | – | – | – | 1.43 | – | – | – | – | – | – | – | – | –
9 | C1=Nc2ccccc2C=Nc2ccccc2C=Nc2ccccc2C=Nc2ccccc21.[Cl-].[Pt+2] | 62.5 | 93.7 | 22.4 | – | 87.8 | – | 67.2 | > 100 | – | – | 31.4 | 3.61 | – | – | 21.1 | – | 14.9 | 29.9 | – | 3.95
10 | COc1cc2c(cn1)[nH]c1ccccc12 | > 100 | > 100 | > 100 | – | > 100 | – | > 100 | > 100 | > 100 | > 100 | – | – | – | – | – | – | – | – | – | –
11 | COc1cc(Nc2nc3ccc(C(F)(F)F)cc3nc2-c2ccccc2)cc(OC)c1OC | 79.4 | > 100 | – | – | > 100 | > 100 | > 100 | 15.5 | > 100 | > 100 | – | – | – | – | – | – | – | – | – | –
12 | N#CC1CC2(C(=O)C1=O)c1ccccc1-c1ccccc12 (centres undefined) | > 100 | > 100 | > 100 | – | > 100 | > 100 | > 100 | > 100 | > 100 | > 100 | – | – | – | – | – | – | – | – | – | –
13 | Cc1ccc(Sc2sc(-c3ccccc3)nc2[P+](c2ccccc2)(c2ccccc2)c2ccccc2)cc1 | 1.04 | 1.54 | 0.521 | – | 1.25 | 1.38 | 2 | 0.901 | 1.09 | 0.92 | 0.329 | 0.257 | 0.27 | – | 0.317 | 0.331 | 0.373 | 0.276 | 0.305 | 0.194
14 | O=C1CS/C(=N\S(=O)(=O)c2ccc(N3N=C4c5ccccc5CC4C3c3ccc(Cl)cc3)cc2)N1c1ccccc1 (centres undefined) | > 100 | 40.3 | 48.7 | > 100 | 77.3 | 81.3 | 58.3 | 49.1 | – | – | 35.8 | 18.7 | – | 41.7 | 30.1 | 29.4 | 13.7 | 23.4 | – | 23.1
15 | COc1ccc(N(C)c2c3ccccc3nc3[nH]c4ccccc4c23)cc1 | 3.07 | 16.3 | 0.466 | 2.61 | 2.64 | 22.3 | – | 1.58 | – | – | 0.774 | 0.558 | – | 0.986 | 0.875 | 5.4 | – | 0.55 | – | 0.112
16 | CSc1ncnc2c1CCN2 | – | – | – | – | > 100 | – | – | > 100 | – | > 100 | – | – | > 100 | – | > 100 | – | – | > 100 | – | –
17 | C1COCCOCCOCCOCCO1.CC(=O)[CH-]C(C)=O.CC(=O)[CH-]C(C)=O.CC(=O)[CH-]C(C)=O.[V] | 33.2 | 71.4 | 42.2 | – | 17.4 | 3.26 | 41.3 | 29.6 | 3.81 | 16.4 | 15 | 29.1 | 2.99 | – | 4.25 | 1.63 | 19.1 | 15.1 | 0.56 | 20.1
18 | O=C(NCc1ccncc1)C1COc2cc(-c3cc(=O)c4ccccc4o3)ccc2O1 (centres undefined) | – | > 100 | > 100 | – | > 100 | > 100 | > 100 | > 100 | > 100 | > 100 | – | – | – | – | – | – | – | – | – | –
